The subject of this series is human PKK mRNA. In words: Antisense inhibition of human PKK mRNA in HepaRG cells, 1,000 nM, MOE/deoxy/cEt oligonucleotides (Example 3). Type of series: cell-based. How it is done:
Additional antisense oligonucleotides were designed targeting a PKK nucleic acid and were tested for their effects on PKK mRNA in vitro.
The chimeric antisense oligonucleotides in the tables below were designed as deoxy, MOE and cEt gapmers. The gapmers are 16 nucleosides in length wherein the nucleoside have either a MOE sugar modification, a cEt sugar modification, or a deoxy modification. The ‘Chemistry’ column describes the sugar modifications of each oligonucleotide. ‘k’ indicates an cEt sugar modification; the number indicates the number of deoxynucleosides; otherwise, indicates a deoxynucleoside; and ‘e’ indicates a 2′-O-methoxyethyl modification. The internucleoside linkages throughout each gapmer are phosphorothioate linkages. All cytosine residues throughout each oligonucleotide are 5-methylcytosines. “Start site” indicates the 5′-most nucleoside to which the gapmer is targeted in the human gene sequence. “Stop site” indicates the 3′-most nucleoside to which the gapmer is targeted in the human gene sequence.
Cultured HepaRG™ cells at a density of 20,000 cells per well were transfected using electroporation with 1,000 nM antisense oligonucleotide. After a treatment period of approximately 24 hours, RNA was isolated from the cells and PKK mRNA levels were measured by quantitative real-time PCR. Human primer probe set RTS3454 was used to measure mRNA levels. ISIS 531231 was also included in this assay. PKK mRNA levels were adjusted according to total RNA content, as measured by RIBOGREEN®. The antisense oligonucleotides were tested in a series of experiments that had similar culture conditions. Results are presented as percent inhibition of PKK, relative to untreated control cells.

Setting [1] is: Table 20, HepaRG cells, electroporation with 1,000 nM antisense oligonucleotide, approximately 24 hours, PKK mRNA by RT-PCR (RTS3454), relative to untreated control cells.
The mark [2] stands for this setting: Table 22 experiment, HepaRG cells, electroporation with 1,000 nM antisense oligonucleotide, approx. 24 hours, PKK mRNA by RT-PCR (RTS3454), relative to untreated control cells.
Where [3] appears, read: PKK mRNA, HepaRG cells, 1,000 nM antisense oligonucleotide, Table 31.
Where [4] appears, read: HepaRG cells, electroporation with 1,000 nM antisense oligonucleotide, approx. 24 hours, PKK mRNA by RT-PCR (RTS3454), relative to untreated control cells, Table 25 experiment.
The mark [5] stands for this setting: HepaRG cells, 1,000 nM antisense oligonucleotide, Table 29.
Setting [6] is: Table 28, HepaRG cells, 1,000 nM antisense oligonucleotide, human PKK mRNA.
[7] abbreviates: Table 30, human PKK mRNA, HepaRG cells, 1,000 nM antisense oligonucleotide.
The mark [8] stands for this setting: HepaRG cells, electroporation with 1,000 nM antisense oligonucleotide, approx. 24 hours, PKK mRNA by RT-PCR (RTS3454), relative to untreated control cells, Table 26 experiment.
The mark [9] stands for this setting: HepaRG cells, electroporation with 1,000 nM antisense oligonucleotide, approximately 24 hours, primer probe set RTS3454, relative to untreated control cells, experiment of Table 24.
Where [10] appears, read: Table 27, HepaRG cells, 1,000 nM antisense oligonucleotide, human PKK mRNA.
Where [11] appears, read: HepaRG cells, electroporation with 1,000 nM antisense oligonucleotide, approximately 24 hours, primer probe set RTS3454, relative to untreated control cells, experiment of Table 23.

Strand notation (5' to 3'): a small letter for the sugar, then the base; units joined by * are phosphorothioate-linked, units joined directly phosphodiester-linked; [ ] holds rarer units or linkages, { } end groups; capitals alone tell only the bases. e = 2'-O-(2-methoxyethyl) (MOE); k = constrained ethyl (cEt); [5mC] = 5-methylcytosine; d = 2'-deoxy (DNA)

For the substance “547848 (antisense eA*eT*kG*dT*d[5mC]*dT*d[5mC]*dG*dA*dT*dG*dG*d[5mC]*kA*kA*eG) [compound 547848]”, the % inhibition (as a rule, the drop in the measured response relative to a control, in per cent) is given as 93% under setting [1] and 79% under setting [2].

As to “548631 (antisense e[5mC]*eT*k[5mC]*dA*d[5mC]*dA*dA*dT*dA*d[5mC]*dT*dG*dA*kG*k[5mC]*e[5mC]) [compound 548631]”, under setting [3], the “% inhibition” value was 55%.

Take “548179 (eG*eG*kA*dG*dA*dT*d[5mC]*dT*d[5mC]*dA*dG*dT*dT*kG*k[5mC]*eG; antisense) [compound 548179]”: under setting [4], the “% inhibition” value is 52%.

With “548578 (e[5mC]*eA*kT*dG*dG*d[5mC]*dT*dA*dT*dT*dG*d[5mC]*dT*kT*k[5mC]*e[5mC]; antisense) [compound 548578]”, the “% inhibition” value under setting [5] worked out at 73%.

Take “547875 (antisense e[5mC]*eA*k[5mC]*dT*dG*d[5mC]*dT*dA*dA*d[5mC]*d[5mC]*dT*dT*kA*kG*eA) [compound 547875]”: the “% inhibition” value is, setting by setting: under setting [1], 73%; under setting [2], 57%.

“548468 (e[5mC]*eA*kA*d[5mC]*dA*dT*d[5mC]*dA*d[5mC]*dT*dG*dT*dA*k[5mC]*k[5mC]*eT; antisense) [compound 548468]”: under setting [6], the “% inhibition” value stood at 6%.

With “548481 (eG*eT*kT*d[5mC]*d[5mC]*d[5mC]*dT*dG*dA*dG*dG*dA*dA*k[5mC]*kG*eG; antisense) [compound 548481]”, under setting [6], the “% inhibition” value was 2%.

As to “548390 (eG*e[5mC]*kT*dG*dA*dG*dT*dG*dT*dG*dA*d[5mC]*dT*kT*kA*eA; antisense) [compound 548390]”, the “% inhibition” value under setting [7] stood at 43%.

With “548118 (antisense eT*e[5mC]*kT*d[5mC]*dA*dT*dG*d[5mC]*dT*dG*dG*dT*dG*kA*k[5mC]*eT) [compound 548118]”, where the note is “Table 19, HepaRG cells, electroporation with 1,000 nM antisense oligonucleotide, approximately 24 hours, PKK mRNA by RT-PCR (RTS3454), relative to untreated control cells”, the “% inhibition” value is recorded as 47%.

For the substance “547876 (antisense eA*e[5mC]*kA*d[5mC]*dT*dG*d[5mC]*dT*dA*dA*d[5mC]*d[5mC]*dT*kT*kA*eG) [compound 547876]”, the “% inhibition” value came out at 78% under setting [1] and 59% under setting [2].

For the substance “548229 (e[5mC]*eA*kT*dT*dG*dT*dT*dG*dT*dG*dT*dG*dG*k[5mC]*k[5mC]*e[5mC]; antisense) [compound 548229]”, the “% inhibition” value under setting [8] turned out to be 31%.

Turning to “548397 (eG*eG*kA*dG*d[5mC]*dA*dG*dT*dG*d[5mC]*dA*dG*dG*kT*kA*eA; antisense) [compound 548397]”, the “% inhibition” value under setting [7] is on record as 1%.

As to “547860 (antisense eT*e[5mC]*k[5mC]*dT*d[5mC]*dT*d[5mC]*dA*dT*dA*dT*d[5mC]*dA*kA*k[5mC]*eT) [compound 547860]”, the “% inhibition” value under setting [1] turned out to be 71% and the “% inhibition” value under setting [2] is recorded as 70%.

With “548418 (antisense eT*eA*kT*dA*dT*d[5mC]*dA*d[5mC]*dT*dG*dT*d[5mC]*d[5mC]*kT*kA*eT) [compound 548418]”, under setting [7], the “% inhibition” value is given as 39%.

As to “548467 (e[5mC]*eA*kT*d[5mC]*dA*d[5mC]*dT*dG*dT*dA*d[5mC]*d[5mC]*dT*kA*kT*eA; antisense) [compound 548467]”, the “% inhibition” value under setting [6] was 20%.

For “548643 (antisense e[5mC]*e[5mC]*kT*dA*d[5mC]*d[5mC]*dT*dA*dA*dT*dT*d[5mC]*d[5mC]*kT*k[5mC]*e[5mC]) [compound 548643]”, the “% inhibition” value under setting [3] is reported as 0%.

For the substance “548505 (antisense eG*eG*kA*d[5mC]*dA*dA*dT*dG*d[5mC]*d[5mC]*dT*dA*dT*kG*k[5mC]*eT) [compound 548505]”, the “% inhibition” value under setting [6] stood at 21%.

On to “548062 (eA*eT*kA*dA*dA*dT*dT*dG*dT*dG*d[5mC]*dT*dT*kG*kT*eG; antisense) [compound 548062]”, for which the “% inhibition” value under setting [9] came out at 19%.

As for “548689 (DNA e[5mC]*e[5mC]*kA*dG*dG*dT*dG*d[5mC]*dA*dG*d[5mC]*dA*d[5mC]*kG*kG*eA) [compound 548689]”, under setting [3], the “% inhibition” value was found to be 12%.

As for “548514 (antisense eT*e[5mC]*kG*dA*dG*dG*dA*d[5mC]*dA*dG*d[5mC]*d[5mC]*d[5mC]*k[5mC]*k[5mC]*eA) [compound 548514]”, the “% inhibition” value under setting [6] is 40%.

For the substance “548374 (eG*e[5mC]*kA*d[5mC]*d[5mC]*d[5mC]*dT*dT*dT*dT*d[5mC]*dA*dT*kT*kG*eA; antisense) [compound 548374]”, under setting [10], the “% inhibition” value is listed as 41%.

On to “548025 (eT*eG*kA*dG*d[5mC]*dT*dG*dT*d[5mC]*dA*dG*d[5mC]*dT*kT*k[5mC]*eA; antisense) [compound 548025]”, for which, under setting [9], the “% inhibition” value is 66%.

On to “547888 (eT*e[5mC]*k[5mC]*dG*dG*dT*dA*d[5mC]*dT*d[5mC]*dT*dG*d[5mC]*k[5mC]*kT*eT; antisense) [compound 547888]”, for which the “% inhibition” value under setting [2] is 99%.

With “547940 (eT*eT*kT*d[5mC]*dT*dT*dT*dG*dT*dG*dA*d[5mC]*dT*k[5mC]*kG*eA; antisense) [compound 547940]”, the “% inhibition” value under setting [11] turned out to be 71%.

As to “548420 (antisense eT*e[5mC]*k[5mC]*dT*dA*dT*dA*dT*d[5mC]*dA*d[5mC]*dT*dG*kT*k[5mC]*e[5mC]) [compound 548420]”, the “% inhibition” value under setting [7] is 58%.

Take “548323 (e[5mC]*eT*kG*dT*dT*dG*d[5mC]*d[5mC]*dT*dG*dA*d[5mC]*dA*kT*kG*e[5mC]; antisense) [compound 548323]”: under setting [10], the “% inhibition” value was 43%.

“548065 (eT*eT*kG*dG*dT*dA*dT*dA*dA*dA*dT*dT*dG*kT*kG*e[5mC]; antisense) [compound 548065]”: the “% inhibition” value under setting [9] was found to be 22%.

As to “548206 (eG*eG*kT*d[5mC]*dA*dA*dT*d[5mC]*dT*dG*dA*d[5mC]*dT*kA*kG*eT; antisense) [compound 548206]”, under setting [4], the “% inhibition” value was determined as 45%.

Consider “548273 (antisense eA*eA*kT*d[5mC]*dT*d[5mC]*d[5mC]*dA*d[5mC]*d[5mC]*d[5mC]*d[5mC]*d[5mC]*kG*kA*eA) [compound 548273]”, for which the “% inhibition” value under setting [8] turned out to be 5%.

For the substance “548544 (antisense eG*e[5mC]*kT*dG*dT*dG*dA*d[5mC]*dT*d[5mC]*dA*dG*dA*kT*k[5mC]*eA) [compound 548544]”, the “% inhibition” value under setting [5] stood at 62%.

In the case of “548373 (eT*e[5mC]*k[5mC]*d[5mC]*d[5mC]*dA*dA*dG*dA*dT*dT*dA*dT*kG*kT*eG; antisense) [compound 548373]”, under setting [10], the “% inhibition” value is reported as 16%.

As for “548020 (eT*e[5mC]*k[5mC]*d[5mC]*d[5mC]*dA*dA*dG*dA*dA*dG*dA*dG*kT*kT*eT; antisense) [compound 548020]”, the “% inhibition” value under setting [9] turned out to be 76%.

Take “548239 (eT*eA*k[5mC]*dT*d[5mC]*dG*d[5mC]*d[5mC]*dT*dT*dT*dG*dT*kG*kA*e[5mC]; antisense) [compound 548239]”: the “% inhibition” value under setting [8] amounted to 18%.

“548232 (eG*e[5mC]*k[5mC]*dA*dT*dA*d[5mC]*dA*dT*d[5mC]*dT*dG*dA*kG*kG*eA; antisense) [compound 548232]”: under setting [8], the “% inhibition” value was determined as 3%.

As to “548166 (eG*e[5mC]*kG*dA*d[5mC]*d[5mC]*dT*d[5mC]*dG*d[5mC]*dA*dT*dT*kG*kT*e[5mC]; antisense) [compound 548166]”, under setting [4], the “% inhibition” value is recorded as 0%.

In the case of “547996 (antisense eT*eG*kT*dG*dT*d[5mC]*d[5mC]*d[5mC]*dA*dT*dA*d[5mC]*dG*k[5mC]*kA*eA) [compound 547996]”, under setting [11], the “% inhibition” value was 65%.

With “548596 (eA*eT*kG*dG*d[5mC]*dG*dG*dT*dG*dA*dA*dG*d[5mC]*kA*kG*e[5mC]; antisense) [compound 548596]”, the “% inhibition” value under setting [5] came out at 20%.

In the case of “547906 (eT*eT*kA*d[5mC]*dT*d[5mC]*dA*dG*d[5mC]*dA*d[5mC]*d[5mC]*dT*kT*kT*eA; antisense) [compound 547906]”, the “% inhibition” value is 59% under setting [1] and 70% under setting [2].

Take “548045 (eT*eT*kA*dT*dA*dG*dT*dT*dT*dT*dG*dG*dT*kG*kA*eA; antisense) [compound 548045]”: the “% inhibition” value under setting [9] stood at 0%.

As to “548441 (antisense eT*e[5mC]*k[5mC]*dT*dA*dT*dA*dA*d[5mC]*dA*dG*dT*dA*kT*k[5mC]*eA) [compound 548441]”, the “% inhibition” value under setting [7] stood at 42%.

The values above are taken from patent US11840686B2, “Modulation of prekallikrein (PKK) expression” (Ionis Pharmaceuticals, Inc., priority 2013, dated 2023).
